Measured values as given in patent US8753820B2, “Protein biomarkers for soft tissue disease diagnosis and as therapeutic targets for oral care intervention” (Colgate-Palmolive Company, priority 2009, dated 2014).

Experiments:
[1] = system: MMP-9 production of U937 cells; assay: MMP-9 ELISA of conditioned media from TNFα-stimulated U937 monocyte cells; assay type: cell-based, Human; conditions: for MMP-9 production, Average: U937 cells, 24 hours, ELISA of conditioned media
Method: U937 cells and RPMI 1640 culture medium were obtained from ATCC. Human MMP-9 ELISA Kit (QUANTIKINE) was obtained from R&D Systems. Fetal Bovine Serum (FBS) was obtained from VWR, and the penicillin-streptomycin solution and Tumor Necrosis Factor α (TNFα) were obtained from Sigma.
Human leukemia U937 monocyte lymphoma cells were cultured in RPMI 1640 medium supplemented with 10% FBS and 1% Penicillin-Streptomycin solution. Cells were incubated at 37° C. in a humidified atmosphere containing 5% CO2 and 95% air. Before treatment, cells were transferred into RPMI containing 1% FBS for overnight. Cells were plated on a 48 well plate. Cell culture medium included either TNFα (250 ng/mL), Triclosan (1 ppm), or both agents together or no agent (control). Cells were incubated after treatment for 24 hours. Conditioned media were collected and store at −80° C. until analysis. Samples of conditioned media were subjected to enzyme-linked immunosorbent assays (ELISA) for MMP-9, according to commercial ELISA protocol (FIG. 1).

[2] = system: MMP-13 expression in UMR 106-01 cells; assay: MMP-13 expression by real time quantitative RT-PCR in PTH stimulated UMR 106-01 cells; assay type: cell-based, Rat; conditions: 4 hours; for MMP-13 expression in PTH stimulated UMR cells: PTH 10^-8 M
Method: Parathyroid hormone (rat PTH 1-34) was purchased from Sigma. UMR 106-01 cells were cultured in Eagle's minimal essential medium (EMEM) supplemented with 25 mM Hepes pH 7.4, 1% nonessential amino acids, 100 units/ml penicillin, 100 μg/ml streptomycin. 5% fetal bovine serum. Real Time Quantitative RT-PCR was conducted according to the following method: UMR 106-01 cells were seeded in 12-well plates and cultured for 2-3 days in cell culture media. When cells were confluent, cell culture media was exchanged with 1% fetal bovine serum for overnight for cell starvation. Cells were pre-incubated with dentifrice for 15 min and then incubated with PTH (10^−8 M) for 4 hours.
Total RNA was isolated from UMR 106-01 cells stimulated with or without PTH with TRIzol reagent. Total RNA (0.1 μg) was reverse-transcribed to cDNA using the Invitrogen SUPERSCRIPT kit according to the manufacturer's instructions. All cDNAs were amplified by adding 2.5 μl of cDNA to the PCR mixture (22.5 μl) containing each primer (0.2 μM) and 12.5 μl of the Platinum SYBR Green qPCR SuperMix UDG (Invitrogen). The reactions were preincubated at 50° C. for 2 minutes to decontaminate dU-containing DNA by UDG, then at 95° C. for 2 minutes to inactivate UDG and activate Taq. The PCR program continued 49 cycles of denaturation at 95° C. for 15 seconds, annealing and elongation of the primers at 60° C. for 30 seconds. Relative quantification of gene expression was determined by using the 2-delta delta CT method where fold changes in gene expression are relative to control samples. All samples were normalized to β-actin.
All results were expressed as means±standard error (S.E.) of triplicate measurements with all experiments being repeated at least three times. Statistical analyses were carried out using the Student's t test.

[3] = PEG 600 present in a weight ratio of 25 triclosan:1 PEG 600, versus absence of polyethylene glycol; cited from earlier work

Compound: Oc1cc(Cl)ccc1Oc1ccc(Cl)cc1Cl [Triclosan, 2,4,4′-trichloro-2′-hydroxydiphenyl ether]
- MMP-9 level in TNFα stimulated U937 cells ([1]; Triclosan at 1 ppm): significantly reduced
- MMP-9 production, Average ([1]; TNFα 250 ng/mL + Triclosan 1 ppm): 0.155 ng/mL
- MMP-13 expression in PTH stimulated UMR cells ([2]; 1 ppm): significantly reduced
- MMP-13 expression in PTH stimulated UMR cells ([2]; 4 ppm): significantly reduced
- MMP-13 expression in PTH stimulated UMR cells ([2]; 10 ppm): significantly reduced
- factor by which antibacterial activity of triclosan is reduced [3]: 10-20

Compound: PTH: Parathyroid hormone (rat PTH 1-34) purchased from Sigma, used to stimulate MMP-13 expression (AVSEIQLMHNLGKHLASVERMQWLRKKLQDVHNF; Parathyroid hormone; UniProt P04089 32-65, looked up, fragment)
- MMP-13 expression in UMR cells ([2]; stimulated with PTH 10^-8 M): increase

Compound: TNFα
- MMP-9 production, Average ([1]; TNFα 250 ng/mL alone): 0.275 ng/mL
- MMP-9 level in U937 cells ([1]; stimulated with TNFα): increase
